Structures can show the parent of a compound that is named as a salt. Where two headings read alike, the source gives them in different places.
What was measured:
[1] = tested on: right ventricle of isolated rabbit heart; test: Electrophysiological tests in the isolated rabbit heart, right ventricle; conditions: n = 4
Description: (§1) Hearts of rabbits of both sexes, weighing 1 to 2 kg, were removed, the right and left auricles and a segment of the right ventricle were prepared and placed into a vessel filled with nutrient solution. Bipolar platinum electrodes (a stimulating electrode and a lead electrode) were placed on the organ strips, and the electric stimulus threshold and the speed of impulse conduction were measured. The effective refractory period was determined on the basis of the maximal driving frequency.

[2] = tested on: mice treated with aconitin; test: animal or person; type: in vivo; conditions: Mus musculus, read-out: Delay in the appearance time of arrhythmia
Description: Arrhytmia was induced in male mice, weighing 20 to 25 g, by treating them continuously, at a rate of 0.2 ml/min with an infusion containing 5 μg/kg of aconitin. The test compound was administered to the animals either intraperitoneally (by injecting it into the abdominal cavity) 15 minutes before the start of the infusion, or orally 60 minutes before the onset of the infusion. The time of the appearance of arrhythmia was recorded, and the percentage of delay was calculated in relation to the data obtained in the controls, pretreated with 0.9 percent sodium chloride solution only [B. Vargaftig and J. L. Coignet: European J. of Pharmacol. 6, 49 to 55 (1969); N. K. Dadkar and B. K. Bhattachariya: Arch. Int. Pharmacodyn. 212, 297 to 301 (1974); D. U. Nwagwu, T. L. Holcslaw and S. J. Stohs: Arch. Int. Pharmacodyn. 229, 219 to 226 (1977)].

[3] = tested on: left auricle of isolated rabbit heart; test: Electrophysiological tests in the isolated rabbit heart, left auricle; conditions: for Change in conduction time / Change in electric stimulus threshold / Change in max. driving frequency: n = 4
Description: as §1

in vivo = conditions: mouse

Cc1ccccc1NNC(=N)N(C)C [Example 1, 1-(2-Methylphenyl)-4,4-dimethyl-aminoguanidine hydrochloride]
Change in conduction time ([1]; 0.25 mg/l): +0.2% | Change in electric stimulus threshold ([1]; 0.25 mg/l): 0% | Change in max. driving frequency ([1]; 0.25 mg/l): -0.88% | Change in conduction time ([1]; 0.5 mg/l): +3.31% | Change in electric stimulus threshold ([1]; 0.5 mg/l): -1.43% | Change in max. driving frequency ([1]; 0.5 mg/l): -0.38% | Change in conduction time ([1]; 1.0 mg/l): +14.84% | Change in electric stimulus threshold ([1]; 1.0 mg/l): +5.42% | Change in max. driving frequency ([1]; 1.0 mg/l): -1.82% | Change in conduction time ([1]; 2.0 mg/l): +36.75% | Change in electric stimulus threshold ([1]; 2.0 mg/l): +20.6% | Change in max. driving frequency ([1]; 2.0 mg/l): -10.33% | Change in conduction time ([1]; 4.0 mg/l): +52.45% | Change in electric stimulus threshold ([1]; 4.0 mg/l): +23.6% | Change in max. driving frequency ([1]; 4.0 mg/l): -17.43% | Change in conduction time ([1]; 8.0 mg/l): +77.82% | Change in electric stimulus threshold ([1]; 8.0 mg/l): +35.8% | Change in max. driving frequency ([1]; 8.0 mg/l): -36.8% | change in vivo at 25 mg/kg ([2]; ip): 164% | change in vivo at 50 mg/kg ([2]; ip): 174% | change in vivo at 50 mg/kg ([2]; po): 102% | change in vivo at 100 mg/kg ([2]; po): 197% | Change in conduction time ([3]; 0.25 mg/l): +0.54% | Change in electric stimulus threshold ([3]; 0.25 mg/l): 0% | Change in max. driving frequency ([3]; 0.25 mg/l): -0.08% | Change in conduction time ([3]; 0.5 mg/l): +8.66% | Change in electric stimulus threshold ([3]; 0.5 mg/l): -1.82% | Change in max. driving frequency ([3]; 0.5 mg/l): -0.98% | Change in conduction time ([3]; 1.0 mg/l): +12.55% | Change in electric stimulus threshold ([3]; 1.0 mg/l): -11.8% | Change in max. driving frequency ([3]; 1.0 mg/l): -9.21% | Change in conduction time ([3]; 2.0 mg/l): +28.42% | Change in electric stimulus threshold ([3]; 2.0 mg/l): +30.84% | Change in max. driving frequency ([3]; 2.0 mg/l): -17.09% | Change in conduction time ([3]; 4.0 mg/l): +47.87% | Change in electric stimulus threshold ([3]; 4.0 mg/l): +43.4% | Change in max. driving frequency ([3]; 4.0 mg/l): -28.82% | Change in conduction time ([3]; 8.0 mg/l): +114.03% | Change in electric stimulus threshold ([3]; 8.0 mg/l): +83.9% | Change in max. driving frequency ([3]; 8.0 mg/l): -59.1% | inhibition at 0.25 µg/mL ([3]; Oryctolagus cuniculus, 0.25 mg/l, n = 4, read-out: Contractility): 2.61% | inhibition at 0.5 µg/mL ([3]; Oryctolagus cuniculus, 0.5 mg/l, n = 4, read-out: Contractility): 7.57% | inhibition at 1 µg/mL ([3]; Oryctolagus cuniculus, 1.0 mg/l, n = 4, read-out: Contractility): 15.5% | inhibition at 2 µg/mL ([3]; Oryctolagus cuniculus, 2.0 mg/l, n = 4, read-out: Contractility): 18.1% | inhibition at 4 µg/mL ([3]; Oryctolagus cuniculus, 4.0 mg/l, n = 4, read-out: Contractility): 27.1% | inhibition at 8 µg/mL ([3]; Oryctolagus cuniculus, 8.0 mg/l, n = 4, read-out: Contractility): 37.9% | LD50 (in vivo; ip): 81 mg/kg | LD50 (in vivo; po): 203 mg/kg

Source: US4731383A, “Aminoguanidine compounds, their compositions and pharmaceutical uses” (Biogal Gyogyszergyar, priority 1983, dated 1988)
